Assay results reported in ChEMBL document CHEMBL1201862, “PubChem BioAssay data set” (2004).
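1) Cells in 96-well plates. 2) Compound, 48 h, 5 concentrations. 3) Linear interpolation between surrounding doses. 4) Unreached endpoint = highest concentration. Here, GI50 denotes the concentration required for 50% inhibition of growth.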 Activity calls are given as the source filed them. Cut-off read from the data, not from the text of the source: active = GI50 up to about 1.1 µM and inactive = higher.

Legend:
Test in all cases: growth of human tumour cells (NCI), 48 h
786-0 = system: 786-0
A549 = system: A549
ACHN = system: ACHN
HCC 2998 = system: HCC 2998
HCT-116 = system: HCT-116
HT-29 = system: HT-29
IGROV-1 = system: IGROV-1
LOX IMVI = system: LOX IMVI
M14 = system: M14
MDA-N = system: MDA-N
NCI-H460 = system: NCI-H460
NCI/ADR-RES = system: NCI/ADR-RES
OVCAR-3 = system: OVCAR-3
OVCAR-5 = system: OVCAR-5
SF-268 = system: SF-268
SF-539 = system: SF-539
SK-MEL-5 = system: SK-MEL-5
SNB-75 = system: SNB-75
SR = system: SR
UACC-62 = system: UACC-62

Measured: GI50

CC1(C)[C@H]2CC[C@](C)(C2)[C@]1(S)Cc1ccccn1
inactive: 786-0 27 µM | A549 42.7 µM | ACHN 54.2 µM | HCC 2998 18.5 µM | HCT-116 32.8 µM | HT-29 24.9 µM | IGROV-1 30.8 µM | LOX IMVI 17.3 µM | M14 84.1 µM | MDA-N 39.3 µM | NCI-H460 27.2 µM | NCI/ADR-RES 50.5 µM | OVCAR-3 21.7 µM | OVCAR-5 88.9 µM | SF-268 39.7 µM | SF-539 > 100 µM | SK-MEL-5 21.8 µM | SNB-75 23.9 µM | SR 18.1 µM | UACC-62 67.8 µM

CC(=O)Nc1ccc(-c2nc3cc(Cl)ccc3o2)cc1
inactive: 786-0 > 50 µM | A549 > 50 µM | ACHN > 50 µM | HCC 2998 40.1 µM | HCT-116 > 50 µM | HT-29 > 50 µM | IGROV-1 > 50 µM | LOX IMVI > 50 µM | M14 > 50 µM | MDA-N > 50 µM | NCI-H460 > 50 µM | NCI/ADR-RES > 50 µM | OVCAR-3 > 50 µM | OVCAR-5 > 50 µM | SF-268 > 50 µM | SF-539 > 50 µM | SK-MEL-5 20.4 µM | SNB-75 32.5 µM | SR > 50 µM | UACC-62 > 50 µM

CN(CCNC(=O)c1c[nH]c2c1ccc1ccccc12)CCNC(=O)c1c[nH]c2c1ccc1ccccc12
inactive: 786-0 1.82 µM | A549 2.2 µM | ACHN 1.86 µM | HCC 2998 1.41 µM | HCT-116 1.76 µM | HT-29 1.87 µM | IGROV-1 1.41 µM | LOX IMVI 1.64 µM | M14 1.84 µM | MDA-N 2.31 µM | NCI-H460 1.96 µM | NCI/ADR-RES 4.81 µM | OVCAR-3 4.29 µM | OVCAR-5 4.74 µM | SF-268 3.1 µM | SF-539 1.15 µM | SK-MEL-5 7.29 µM | SNB-75 1.52 µM | SR 2.08 µM | UACC-62 1.75 µM

CC(C)NC(=O)OCCN=C1c2ccccc2CCc2ccccc21
inactive: 786-0 43.6 µM | A549 22.8 µM | ACHN 27.2 µM | HCC 2998 18.4 µM | HCT-116 21.9 µM | HT-29 21.4 µM | IGROV-1 35.1 µM | LOX IMVI 26.6 µM | M14 20.3 µM | MDA-N 18.7 µM | NCI-H460 28.2 µM | NCI/ADR-RES 30.3 µM | OVCAR-3 25 µM | OVCAR-5 29.4 µM | SF-268 26.2 µM | SF-539 22.3 µM | SK-MEL-5 13.9 µM | SNB-75 24.3 µM | SR 18.1 µM | UACC-62 16.1 µM

O=C(Nc1ccccc1)N1CCNC1=S
inactive: 786-0 > 100 µM | A549 > 100 µM | ACHN > 100 µM | HCC 2998 15.5 µM | HCT-116 > 100 µM | HT-29 > 100 µM | IGROV-1 > 100 µM | LOX IMVI > 100 µM | M14 > 100 µM | MDA-N > 100 µM | NCI-H460 57.9 µM | NCI/ADR-RES > 100 µM | OVCAR-3 > 100 µM | OVCAR-5 > 100 µM | SF-268 > 100 µM | SF-539 > 100 µM | SK-MEL-5 > 100 µM | SNB-75 28.4 µM | SR 69.2 µM | UACC-62 > 100 µM
